For data set [1], the target named is T1, Torpedo californica acetylcholinesterase (tcAChE) (Tetronarce californica, UniProt P04058).
T1 construct: purchased Sigma-Aldrich (Poole, UK)
Put plainly: biochemical. The settings on record: individual drug; Torpedo californica AChE (tc); read-out: Acetycholinesterase Inhibition (IC50).
Protocol: A microtiter plate version of the Ellman’s assay was used to determine the activity of human and Torpedo californica acetylcholinesterase enzymes [27]. Assays were undertaken in the presence of either individual drugs or two-drug combinations. Each assay data point within a 96-well plate contained 40 µL of 0.01 M DTNB, 46 µL of 0.1 M (pH 8.0) phosphate buffer, 2 µL of 0.075 M ATCI substrate, and 10 µL of drug or dual-drug combination. […] Enzymatic cleavage of the ATCI substrate was initiated by addition of 2 µL of 0.5 U/mL AChE enzyme. […] Under these assay conditions, a final color change was reached (results not included) such that an end-point assay measurement was taken [29].
These scoping experiments enabled us to quantify an approximate IC50 for subsequent dose-response experiments. […] These concentrations were also used for dual-drug combination experiments. Experiments undertaken in the absence of inhibitor were designated as 100% enzymatic activity. Assays were performed in duplicates from which a mean was calculated.
Percentage inhibition of AChE from in vitro assays in response to application of individual or dual-drug ChEIs were calculated using CompuSyn software (http://www.combosyn.com/index.html). […]

The nature of a further data set: MTT cytotoxicity assay. It counts as cell-based, human. Conditions: human, SH-SY5Y neuroblastoma cells; read-out: Cell Cytotoxicity Log IC50 (converted). As to the method: (§1) A MTT assay was used to assess the cytotoxicity of either the individual drugs or dual-drug combinations using the SH-SY5Y neuroblastoma cell line. SH-SY5Y cells were seeded in 96-well plates (passage #15) at a cell density of 3 × 10^4 cells/well in DMEM containing 10% FBS. […] Plates were incubated for 4 h at 37 °C, before removal of the media and replacement with 1:1 (v/v) isopropanol:DMSO. […] Cell viability of cells treated with drugs was quantified by comparison to untreated control cells, set at 100% viability.
(§2) Values generated for IC50 and for the dual-drug CI were determined using CompuSyn software. […] For cell viability assays, a one-way ANOVA was performed to determine significant changes after treatments compared to control cell viability, set at 100%.

In data set [2] the test system is SH-SY5Y neuroblastoma cells. Put plainly: MTT cytotoxicity assay. The settings on record: SH-SY5Y, MTT, 48 h; significant change from control. Type of data set: cell-based, human. As for the experimental part: as §1, §2
The conditions of data set [3]: compared to tacrine or berberine; cited from earlier work.

pIC50: −log10 of the molar value. Structures can show the parent of a compound that is named as a salt. Some results are limits rather than exact numbers.

T1 sequence (P04058 22-586): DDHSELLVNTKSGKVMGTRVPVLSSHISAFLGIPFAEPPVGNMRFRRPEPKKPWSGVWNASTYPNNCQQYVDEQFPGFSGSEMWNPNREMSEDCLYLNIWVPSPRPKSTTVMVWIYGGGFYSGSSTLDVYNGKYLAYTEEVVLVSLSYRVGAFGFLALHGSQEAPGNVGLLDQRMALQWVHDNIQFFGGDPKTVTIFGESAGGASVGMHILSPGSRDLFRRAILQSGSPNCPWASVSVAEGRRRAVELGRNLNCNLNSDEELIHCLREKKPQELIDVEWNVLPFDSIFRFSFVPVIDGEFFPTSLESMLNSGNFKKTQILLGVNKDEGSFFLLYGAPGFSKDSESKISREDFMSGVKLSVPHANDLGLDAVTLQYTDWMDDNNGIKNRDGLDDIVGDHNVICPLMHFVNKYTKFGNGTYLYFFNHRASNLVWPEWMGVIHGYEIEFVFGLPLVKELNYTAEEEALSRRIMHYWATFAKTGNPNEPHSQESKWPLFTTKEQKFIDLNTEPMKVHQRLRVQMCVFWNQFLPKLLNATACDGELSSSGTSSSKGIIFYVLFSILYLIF

As to `COc1ccc2cc3[n+](cc2c1OC)CCc1cc2c(cc1-3)OCO2` [Ber, berberine hydrochloride], the negative logarithm of the IC50 (pIC50) in data set [1] was 5.49. Moreover, in “MTT cytotoxicity assay”, the IC50 at 48 h was 955 µg/mL. The “concentration needed to reduce cell viability (induce toxicity)” value in data set [2] is at least 1 µM.
Consider `COc1ccc2c3c1O[C@H]1C[C@@H](O)C=C[C@@]31CCN(C)C2` [Gal, galantamine hydrobromide], for which the oral bioavailability result in data set [3] was “relatively high”. Also, the IC50 at 48 h in the data set “MTT cytotoxicity assay” was 12600 µg/mL. For the same molecule, the “concentration needed to reduce cell viability (induce toxicity)” value in data set [2] is listed as at least 100 µM.
On to `Nc1c2c(nc3ccccc13)CCCC2` [Tac, tacrine hydrochloride], for which the IC50 at 48 h in “MTT cytotoxicity assay” was 339 µg/mL. Also, the “concentration needed to reduce cell viability (induce toxicity)” value in data set [2] is given as “at least 10 µM”.

Values taken from article PMC7913148, “Anti-Cholinesterase Combination Drug Therapy as a Potential Treatment for Alzheimer’s Disease” (Brain Sciences, 2021).
